From US8993559B2, “Use of ibogamine congeners for treating obesity” (Albany Medical College, priority 2008, dated 2015)
“Also recorded” adds a separate entry of the source.

What was measured:
[1] = Weight gain paradigm: sucrose-drinking animals; type: in vivo, rat
Description: FIG. 11 is a graph showing effects of repeated administration of 18-MC (20 mg/kg i.p. for 14 days) on body fat depots (mean±SEM). *=p<0.05. On the seventh day after the last injection of 18-MC, animals were euthanized in CO2 chambers and decapitated. Necropsies were performed to remove periovarian, perirenal and inguinal fat pads.
Animals were maintained on a regular chow and water for the duration of experiment (three weeks). On the first day of experiment, animals received additional bottle containing 30% sucrose solution which remained available for the following three weeks; the bottle sides were switched daily. The body weights of rats were recorded daily for the following two weeks immediately prior administration of 18-MC (20 mg/kg, i.p.) or vehicle. After the last 18-MC injection, the weights were monitored for the additional week.
(§1) For the weight gain experiment, the data for all four treatment groups from days 1-21 were analyzed using two-way ANOVA, with treatment and time as main factors. Furthermore, the data for the first two weeks and the last week for water-vehicle, water-18-MC and sucrose 18-MC were analyzed separately using two-ANOVA, with treatment and time as main factors. Post-hoc comparison tests (Fisher LSD tests) were conducted when appropriate.

[2] = Weight gain of rats on high fat or low fat diet; type: in vivo, rat
Description: FIG. 12 is a graph showing effects of 18-MC (20 mg/kg i.p.) on weight gain of rats. Each data point represents daily weight (g, ±S.E.M.) of rats having access to high fat (HF) or low fat (LF) diet and water, and treated with 18-MC or vehicle. The black bar indicates the duration of treatment with 18-MC: =<0.05, 18-MC vs vehicle.
The development of obesity in rats maintained on a high fat diet is perhaps the commonly used animal model of diet-induced obesity.

[3] = tested on: rats; test: Ad libitum sucrose intake over 24 hours (choice of sucrose or water); type: in vivo, rat
Description: FIG. 9 is a graph showing effects of 18-MC (10, 20, 40 mg/kg i.p.) on consumption of sucrose. Each bar represents mean 24 hour consumption of 5% sucrose solution expressed as percent of baseline (S.E.M.): *=p<0.05.
As described above, systemic 18-MC can decrease operant responding for sucrose and local administration of 18-MC into the dorsolateral tegmentum can also do so. These findings, which were unanticipated, led to investigation of the possibility that 18-MC might be useful in decreasing intake of sweet substances when available ad libitum along with normal rat chow. Rats offered a choice of drinking sucrose (15%) or water have strong preferences (70-80%) for sucrose. […] Whether 18-MC's effect on sucrose intake has a consequence in terms of body weight regulation was explored in a subsequent study. Rats given unlimited access to sucrose (30%) for two weeks gained excessive weight, consistent with other studies of sucrose-induced obesity. […] 18-MC had no effect on the body weight of “normal” rats having only water available.

[4] = tested on: rats; conditions: cited from earlier work
[5] = Weight gain paradigm: water-drinking animals; type: in vivo, rat; conditions: 18-MC 20 mg/kg i.p. daily for two weeks
Description: Animals were allowed unlimited access to regular chow and water and were injected daily with 18-MC (20 mg/kg, i.p.) or vehicle for two weeks. Body weights were recorded immediately prior to injections and were also recorded for an additional week upon cessation of 18-MC treatment.
as §1

[6] = tested on: morphine-experienced rats; conditions: cited from earlier work
[7] = tested on: Sprague-Dawley rats; test: Palatable liquid consumption, two-bottle paradigm (19-h sessions); type: in vivo, rat; conditions: for water consumption: water/water control
Description: Naïve female Sprague-Dawley rats (230-270 g; Taconic, Germantown, N.Y.) were housed individually and maintained on a normal 12 hr light cycle (light on/off at 7 a.m./7 p.m.) in the colony room. For all experiments, food (normal chow) and water were provided ad libitum. The experiments were conducted in accordance with the “Guide for the Care and Use of Laboratory Animals” (National Academy of Sciences, 1996).
On the first day of the experiment, the regular cage tops were replaced with custom-made cage tops containing metal holders for two 100-ml graduated glass bottles (Lab Products Inc., Seaford, Del.); the bottles were placed approximately 2″ apart. Different groups of rats were allowed 19-h (3.30 p.m.-10.30 a.m.) unlimited access to water and 5% sucrose, water and 0.1% saccharine, water and 0.6% saline, or water and water. The concentrations were chosen in accordance with previous reports using similar two-bottle drinking paradigms. See Dess, N. K., Physiol Behav., 69: 247-257 (2000) and Warwick, Z. S. et al., Physiol Behav, 60: 711-715 (1996), which are hereby incorporated by reference in their entirety. The animals were maintained on a normal chow during these sessions. The bottles with palatable fluids were removed at the end of the 19-h sessions, but water and chow remained always available. The consumption of palatable fluids and water during the sessions were recorded on a daily basis for four consecutive sessions: two initial baseline sessions, one treatment session and one port-treatment session. The baseline consumption levels of fluids were established during the initial two sessions; immediately before the third session, animals were injected with 18-MC (10, 20, or 40 mg/kg i.p.) or vehicle. To account for possible side preferences of rats, the bottle sides were switched daily; animals expressing strong side preferences during the baseline sessions were excluded from further analysis. Each animal was used for four weeks, receiving three different dosages of 18-MC and vehicle in random order.
The average levels of fluid consumption (ml) during the first two sessions (baseline), as well as consumption during the post-injection session and the recovery session, were compared by two-way ANOVA using treatment and session as main factors; this analysis was followed by one-way ANOVAs for each treatment group and post-hoc tests when appropriate.

[8] = saccharin/water experiment, 10, 20 and 40 mg/kg i.p.
[9] = sucrose/water experiment, 10, 20 and 40 mg/kg i.p.

## COCC[C@H]1CC2CN3CCc4c([nH]c5ccccc45)[C@](C(=O)OC)(C2)[C@H]13 [18-MC, 18-methoxycoronaridine]
[1]; 18-MC 20 mg/kg i.p. for 14 days, periovarian, perirenal and inguinal fat pads
  weights of fat depots: decreased
[1]; 18-MC-treated sucrose-drinking group
  recovery of the weight gain after cessation of treatment: did not occur for another week
[1]; 30% sucrose, 18-MC 20 mg/kg i.p. daily for two weeks
  sucrose-induced (excessive) weight gain: attenuated; also recorded: totally prevented
[1]; 30% sucrose, 18-MC (40 mg/kg i.p.) as printed, all time points except the first
  body weights vs vehicle-treated sucrose-drinking animals: significantly lower
[2]; 18-MC 20 mg/kg i.p. daily for two weeks, 45 kcal % fat
  excessive weight gain attributable to the high fat diet: totally prevented
[2]; 18-MC 20 mg/kg i.p. for two weeks, high fat diet
  decrease of weights of fat depots in HF rats: about 35%
[2]; 18-MC 20 mg/kg i.p. for two weeks, low fat diet (10 kcal % fat)
  decrease of weights of fat depots in LF rats: not in LF rats
[3]; 18-MC 10-40 mg/kg i.p.
  water intake over the 24 hours following administration: no significant effect
[3]; 18-MC 10-40 mg/kg i.p., sucrose (15%) or water
  intake of sucrose over the 24 hours following administration: decreased
[3]; dose range 10-40 mg/kg i.p.
  ceiling dose beyond which no further effect on ad libitum sucrose intake: 10 mg/kg
[4]
  signs of acute opioid withdrawal: alleviate
[5]
  body weight of rats maintained on water and chow: no effect
[6]
  sensitized morphine-induced dopamine release in the nucleus accumbens: attenuate
[7]; 0.1% saccharin/water, 10 mg/kg i.p.
  saccharin intake, recovery session: reduced intake
[7]; 0.1% saccharin/water, 10, 20 and 40 mg/kg i.p.
  saccharin intake, post-injection session vs baseline: significantly less
[7]; 0.6% saline/water, 10 mg/kg i.p.
  saline consumption vs baseline: remained unchanged
[7]; 0.6% saline/water, 20 and 40 mg/kg i.p., 19 h following injection
  saline consumption vs baseline: reduced
[7]; 0.6% saline/water, highest dose (40 mg/kg i.p.)
  effect on saline consumption, recovery session: also significant
[7]; 5% sucrose/water, 10, 20 and 40 mg/kg i.p.
  sucrose intake, recovery session: returned to baseline
[7]; 5% sucrose/water, 10, 20 and 40 mg/kg i.p., 19-h session
  sucrose consumption, post-injection session vs baseline: significantly reduced
[7]; control water/water experiment vs two-bottle experiments
  selectivity for reducing consumption of sucrose and saccharin relative to water: at least four-fold
[7]; dose range 10-40 mg/kg i.p.
  ceiling effect dose, consumption of sucrose and saccharin: 10 mg/kg
  ceiling effect dose, saline consumption: 20 mg/kg
[7]; saccharin/water experiment, 10 mg/kg i.p.
  effect on total fluid consumption, recovery session: remained significant
[7]; [8]
  total fluid consumption (FIG. 3C), 19 h after injection: reduced
  water consumption across sessions: not altered
[7]; saline/water experiment, 10 mg/kg i.p.
  total fluid consumption: remained unchanged
[7]; saline/water experiment, 10, 20 and 40 mg/kg i.p.
  water consumption across sessions: not different across sessions
[7]; saline/water experiment, 20 and 40 mg/kg i.p.
  total fluid consumption: significantly reduced
[7]; saline/water experiment, highest dose (40 mg/kg i.p.)
  effect on total fluid consumption, recovery session: also significant
[7]; [9]
  total fluid consumption, post-injection session vs baseline: reduced
  water consumption across sessions: remained stable
[7]; 40 mg/kg i.p.
  water consumption: significantly reduced
[7]; 10 and 20 mg/kg i.p.
  water consumption: remained unchanged
